Laboratory results published in ChEMBL document CHEMBL4359901, “Cyclic enaminone as new chemotype for selective cyclooxygenase-2 inhibitory, anti-inflammatory, and analgesic activities” (Eur J Med Chem, 2019).

Tests used:
[1] = Cardiotoxicity in Sprague-Dawley rat assessed as heart rate at 50 mg/kg; type: toxicity, organism-based; details: in vivo
[2] = system: Rattus norvegicus; assay: Analgesic activity in Wistar albino rat assessed as reaction time at 12.5 mg/kg, ip measured after 30 mins for 15 secs by hot plate method (reference value: 4.21 +/- 0.41 sec); type: functional
[3] = system: Rattus norvegicus; assay: Antiinflammatory activity in Sprague-Dawley rat model of carrageenan-induced thermal hyperalgesia assessed as paw withdrawal latency time at 50 mg/kg, po administered 1 hr prior to carrageenan challenge and measured after 2 hrs by planter test (reference value: 6.17 +/- 0.58 sec); type: functional
[4] = Antioxidant activity assessed as DPPH radical scavenging activity at 40 uM/ml incubated for 20 mins by spectrophotometric method relative to control; type: functional
[5] = Cardiotoxicity in Sprague-Dawley rat assessed as SBP rate at 50 mg/kg; type: toxicity, organism-based; details: in vivo
[6] = system: Rattus norvegicus; assay: Analgesic activity in Wistar albino rat assessed as reaction time at 25 mg/kg, ip measured after 30 mins for 15 secs by hot plate method (reference value: 4.21 +/- 0.41 sec); type: functional
[7] = Cardiotoxicity in Sprague-Dawley rat assessed as DBP rate at 50 mg/kg; type: toxicity, organism-based; details: in vivo
[8] = system: Rattus norvegicus; assay: Antiinflammatory activity in Sprague-Dawley rat model of carrageenan-induced thermal hyperalgesia assessed as paw withdrawal latency pressure at 50 mg/kg, po administered 1 hr prior to carrageenan challenge and measured after 2 hrs by Von-frey test (reference value: 146.47 +/- 5.12 g); type: functional
[9] = system: Rattus norvegicus; assay: Antiinflammatory activity in Sprague-Dawley rat model of carrageenan-induced thermal hyperalgesia assessed as paw withdrawal latency time at 30 mg/kg, po administered 1 hr prior to carrageenan challenge and measured after 4 hrs by planter test (reference value: 5.47 +/- 0.84 sec); type: functional
[10] = system: Rattus norvegicus; assay: Antiinflammatory activity in Sprague-Dawley rat model of carrageenan-induced thermal hyperalgesia assessed as paw withdrawal latency time at 50 mg/kg, po administered 1 hr prior to carrageenan challenge and measured after 1 hr by planter test (reference value: 8.88 +/- 0.52 sec); type: functional
[11] = system: Rattus norvegicus; assay: Antiinflammatory activity in Sprague-Dawley rat model of carrageenan-induced thermal hyperalgesia assessed as paw withdrawal latency pressure at 30 mg/kg, po administered 1 hr prior to carrageenan challenge and measured after 1 hr by Randall-Selitto test (reference value: 246.55 +/- 1.05 g); type: functional
[12] = Ulcerogenicity in Sprague-Dawley rat assessed as formation of ulcer at 30 mg/kg, po after 1 hr by microscopic analysis; type: toxicity, organism-based; details: in vivo
[13] = system: Rattus norvegicus; assay: Antiinflammatory activity in Sprague-Dawley rat model of carrageenan-induced thermal hyperalgesia assessed as paw withdrawal latency pressure at 30 mg/kg, po administered 1 hr prior to carrageenan challenge and measured after 3 hrs by Von-frey test (reference value: 31.65 +/- 3.33 g); type: functional
[14] = system: Rattus norvegicus; assay: Antiinflammatory activity in Sprague-Dawley rat model of carrageenan-induced thermal hyperalgesia assessed as paw withdrawal latency pressure at 50 mg/kg, po administered 1 hr prior to carrageenan challenge and measured after 2 hrs by Randall-Selitto test (reference value: 231.13 +/- 3.15 g); type: functional
[15] = Ulcerogenicity in Sprague-Dawley rat assessed as formation of ulcer at 50 mg/kg, po after 1 hr by microscopic analysis; type: toxicity, organism-based; details: in vivo
[16] = target: Prostaglandin G/H synthase 1 (Ovis aries) (UniProt P05979); assay: Inhibition of ovine COX1 assessed as reduction in PGF2alpha at 10 uM incubated for 2 mins using arachidonic acid as substrate by ELISA relative to control
[17] = system: Rattus norvegicus; assay: Antiinflammatory activity in Sprague-Dawley rat model of carrageenan-induced thermal hyperalgesia assessed as paw withdrawal latency pressure at 50 mg/kg, po administered 1 hr prior to carrageenan challenge and measured after 3 hrs by Randall-Selitto test (reference value: […] g); type: functional
[18] = Antioxidant activity assessed as DPPH radical scavenging activity at 10 uM/ml incubated for 20 mins by spectrophotometric method relative to control; type: functional
[19] = system: Rattus norvegicus; assay: Antiinflammatory activity in Sprague-Dawley rat model of carrageenan-induced thermal hyperalgesia assessed as paw withdrawal latency pressure at 30 mg/kg, po administered 1 hr prior to carrageenan challenge and measured after 5 hrs by Von-frey test (reference value: 169.58 +/- 4.26 g); type: functional
[20] = system: Rattus norvegicus; assay: Antiinflammatory activity in Sprague-Dawley rat model of carrageenan-induced thermal hyperalgesia assessed as paw withdrawal latency pressure at 50 mg/kg, po administered 1 hr prior to carrageenan challenge and measured after 3 hrs by Von-frey test (reference value: 146.61 +/- 1.58 g); type: functional
[21] = Antioxidant activity assessed as DPPH radical scavenging activity at 80 uM/ml incubated for 20 mins by spectrophotometric method relative to control; type: functional
[22] = Antioxidant activity assessed as DPPH radical scavenging activity at 20 uM/ml incubated for 20 mins by spectrophotometric method relative to control; type: functional
[23] = system: Rattus norvegicus; assay: Antiinflammatory activity in Sprague-Dawley rat model of carrageenan-induced thermal hyperalgesia assessed as paw withdrawal latency time at 30 mg/kg, po administered 1 hr prior to carrageenan challenge and measured after 5 hrs by planter test (reference value: 7.5 +/- 0.74 sec); type: functional
[24] = system: Rattus norvegicus; assay: Antiinflammatory activity in Sprague-Dawley rat model of carrageenan-induced thermal hyperalgesia assessed as paw withdrawal latency time at 30 mg/kg, po administered 1 hr prior to carrageenan challenge and measured after 2 hrs by planter test (reference value: 6.17 +/- 0.58 sec); type: functional
[25] = system: Rattus norvegicus; assay: Analgesic activity in Wistar albino rat assessed as reaction time at 25 mg/kg, ip measured after 120 mins for 15 secs by hot plate method (reference value: 4.32 +/- 0.52 sec); type: functional
[26] = system: Rattus norvegicus; assay: Antiinflammatory activity in Wistar albino rat assessed as reduction in carrageenan-induced paw edema at 25 mg/kg, ip measured after 3 hrs by plethysmometric method (reference value: 1.75 +/- 0.33 ml); type: functional
[27] = system: Rattus norvegicus; assay: Analgesic activity in Wistar albino rat assessed as reaction time at 12.5 mg/kg, ip measured after 180 mins for 15 secs by hot plate method (reference value: 3.87 +/- 0.38 sec); type: functional
[28] = system: Rattus norvegicus; assay: Analgesic activity in Wistar albino rat assessed as reaction time at 25 mg/kg, ip measured after 60 mins for 15 secs by hot plate method (reference value: 4.67 +/- 0.52 sec); type: functional
[29] = Ulcerogenicity in Sprague-Dawley rat assessed as formation of lesions at 30 mg/kg, po after 1 hr by microscopic analysis; type: toxicity, organism-based; details: in vivo
[30] = system: Rattus norvegicus; assay: Antiinflammatory activity in Wistar albino rat assessed as reduction in carrageenan-induced paw edema at 25 mg/kg, ip measured after 1 hr by plethysmometric method (reference value: 1.43 +/- 0.19 ml); type: functional
[31] = system: Rattus norvegicus; assay: Antiinflammatory activity in Sprague-Dawley rat model of carrageenan-induced thermal hyperalgesia assessed as paw withdrawal latency pressure at 50 mg/kg, po administered 1 hr prior to carrageenan challenge and measured after 5 hrs by Von-frey test (reference value: 169.58 +/- 4.26 g); type: functional

For `CC(=O)N(C1=CC(=O)CCC1)c1ccc(Cl)cc1`, the Activity [1] was “Non-Toxic”, the Time [2] was 6.16 s and the Time [3] was 9.67 s. The Activity [4] was 48%, the Activity [5] was “Non-Toxic” and the Time [6] was 6.86 s. The Activity [7] was “Non-Toxic”, the Activity [8] was 168.03 g and the Time [9] was 6.67 s. For the same compound, the Time [10] was 12.25 s, the Activity [11] was 261.72 g and the Activity [12] was “Non-Toxic”. The Activity [13] was 152.92 g, the Activity [14] was 268.96 g and the UI [15] was 0. For the same compound, the inhibition [16] was 10.8%, the Activity [17] was 265.61 g and the Activity [18] was 6.18%. The Activity [19] was 161.8 g, the Activity [20] was 169.23 g and the Activity [21] was 83.9%. It also gave an Activity [22] of 22.4%, a Time [23] of 6.37 s and a Time [24] of 8.01 s. The Time [25] was 11.58 s, the Activity [26] was 1.11 mL and the Time [27] was 8.22 s. For the same compound, the Time [28] was 7.27 s, the Activity [29] was “Non-Toxic” and the Activity [30] was 1.25 mL. For the same compound, the Activity [31] was 168.65 g.
